# Test results published in patent publication US9234231B2, “Screening tool for anti-inflammatory drug discovery comprising the FPR2/ALX gene promoter” (Università degli Studi “G. D'Annunzio” Chieti-Pescara, priority 2011, dated 2016).
# Assays:
# Assay type in all cases: cell-based, human
# FPR2/ALX mRNA = FPR2/ALX mRNA expression by real time PCR in MDA-MB231 cells
# FPR2/ALX promoter = experiment: Luciferase reporter gene assay of FPR2/ALX promoter constructs P-1500 and P-346 in MDA-MB231 cells; settings: MDA-MB231 cells transfected 24 h, then exposed 24 h; LXA4 10 nM, dexametasone 1 μM, IFN-γ 5-100 nM, LPS 500 nM; vs vehicle
# Procedure: Left panel. MDA-MB231 cells were transfected with P-1500 or P-346. Twenty four hours post-transfection, cells were exposed to ethanol vehicle or 10 nM LXA4 for additional 24 h. Bars depict mean±S.D. of n=4 carried out with duplicates. *, P=0.018; **, P=0.0076 vs vehicle-treated cells. Right panel. MDA-MB231 cells were exposed to LXA4 (10 nM) for the indicated time. FPR2/ALX mRNA was quantitated by real-time PCR. Bars show mean±S.D. of n=3. *, P=0.05.
# Having localized the TSS, a 1500 bp fragment of human genomic DNA (−1449/+51 from the TSS) was amplified by PCR, cloned into the promoterless pGL3 vector containing the luciferase reporter gene. For this purpose, Genomic DNA was extracted from the THP1 cells using the Wizard Genomic DNA Purification Kit (Promega, Milan, Italy). Two primers, (For 1500 bp e Rev 1500 bp, Table 1) were designed on the basis of genomic DNA sequence of 5′-flanking region of the FPR2/ALX gene to amplify a section of DNA starting −1449 bp upstream of the identified transcription start site (+1). In addition to the template (100 ng of genomic DNA) and primers For 1500 bp and Rev 1500 bp (100 ng), the reaction mixture contained 0.2 mM dNTPs, Pfu DNA polymerase buffer and 0.05 units of Jumpstart Taq DNA polymerase (Sigma-Aldrich), PCR consisted of 35 cycles of amplification (30 seconds at 94° C., 30 s at 52° C., and 120 seconds at 72° C.). PCR products were recovered from low melting agarose gel and used as template in PCR reactions using primers For 1500 and Rev 1500, added of Kpn I and Xho I restriction sites, respectively (Table 1). PCR products were resolved by 1.5% agarose gel elecrophoresis, purified and ligated into the pGL3-basic reporter vector, which was previously digested with Kpn I and Xho I restriction endonuclease. […] The promoter activity of the construct was analyzed by transfection into MCF7 and MDA-MB231 cells. […] A slightly higher activity was detected in MDA-MB231 cells (18 fold over empty vector) compared to MCF7 cells (14 fold over empty vector). […]
# FPR2/ALX protein = FPR2/ALX protein expression by flow cytometry in MDA-MB231 cells; settings: 10 μM 5-aza-dC, 72 h, Δ MFI vs untreated cells
compound,measurement,setting,value
"CCCCCC(O)/C=C/C=C\C=C\C=C\C(O)C(O)CCCC(=O)O (stereo not drawn) [LXA4, 5,6,155-trihydroxy-7,9,11,13-trans-1′-cis-eicosatetraenoic acid]",FPR2/ALX mRNA levels,"FPR2/ALX mRNA; MDA-MB231 cells exposed to LXA4 10 nM, real-time PCR",enhanced
same,luciferase activity of P-1500 and P-346,FPR2/ALX promoter,significantly enhanced
C[C@@H]1C[C@H]2[C@@H]3CCC4=CC(=O)C=C[C@]4(C)[C@@]3(F)[C@@H](O)C[C@]2(C)[C@@]1(O)C(=O)CO [dexametasone],luciferase activity of P-1500 and P-346,FPR2/ALX promoter,did not give appreciable changes
"IFN-γ: gamma interferon, cytokine",luciferase activity of P-1500 and P-346,FPR2/ALX promoter,did not give appreciable changes
"Nc1ncn([C@H]2C[C@H](O)[C@@H](CO)O2)c(=O)n1 [5-aza-dC, 5-aza-2′-deoxycytidine]",increase in FPR2/ALX mRNA expression,"FPR2/ALX mRNA; MDA-MB231 cells, 10 μM 5-aza-dC, 72 h, vs untreated cells",~10 fold
same,increase in FPR2/ALX protein expression,FPR2/ALX protein,~3 fold
